We go through 17 compounds from ChEMBL document CHEMBL1150544, “C-3-N-acyl analogs of 9(R)-dihydrotaxol: synthesis and structure activity relationships” (Bioorg Med Chem Lett, 1994).

Assay [1] deals with P388. In words: In vitro cytotoxicity against P388-mouse leukemia cells. Type of assay: functional, cell-based.
For assay [2], the system named is A549. Nature of the assay: In vitro cytotoxicity against A549-human lung carcinoma cells. Type of assay: functional, cell-based.
Assay [3] relates to HT-29. Nature of the assay: In vitro cytotoxicity against HT29-human colon adenocarcinoma cells. Type of assay: functional, cell-based.
A short description of assay [4]: Antitumor activity relative to taxol. Type of assay: functional.
Assay [5] has as its system B16-F10. In words: In vitro cytotoxicity against B16F10-mouse melanoma cells. Type of assay: functional, cell-based.

Molecules are shown by their SMILES. Values after ≈ are worked out from the molar mass of the structure shown.

Turning to `CCC(C)(C)OC(=O)N[C@@H](c1ccccc1)[C@@H](O)C(=O)O[C@H]1C[C@@]2(O)[C@@H](OC(=O)c3ccccc3)[C@@H]3[C@]4(OC(C)=O)CO[C@@H]4C[C@H](O)[C@@]3(C)[C@@H](O)[C@H](OC(C)=O)C(=C1C)C2(C)C`, the concentration for half-maximal inhibition (IC50) – broadly, the midpoint of a concentration-inhibition curve – in assay [1] is 0.0046 µg/mL (≈ 0.00531 µM); in assay [2], 1 ng/mL (≈ 0.00115 µM); in assay [3], 0.67 ng/mL (≈ 0.000774 µM); in assay [5], 0.3 ng/mL (≈ 0.000346 µM). Also, in assay [4], the Ratio came out at 0.73.

Regarding `CC(=O)O[C@@H]1C2=C(C)[C@@H](OC(=O)[C@H](O)[C@@H](NC(=O)C(C)(C)C)c3ccccc3)C[C@@](O)([C@@H](OC(=O)c3ccccc3)[C@@H]3[C@]4(OC(C)=O)CO[C@@H]4C[C@H](O)[C@@]3(C)[C@H]1O)C2(C)C`, the 50% inhibitory concentration (IC50) in assay [1] is 0.083 µg/mL (≈ 0.0993 µM); in assay [2], 110 ng/mL (≈ 0.132 µM); in assay [3] it was less than 10 ng/mL; in assay [5] it was 35 ng/mL (≈ 0.0419 µM). For the same compound, in assay [4], the Ratio is 2.36.

Turning to `CCOC(=O)N[C@@H](c1ccccc1)[C@@H](O)C(=O)O[C@H]1C[C@@]2(O)[C@@H](OC(=O)c3ccccc3)[C@@H]3[C@]4(OC(C)=O)CO[C@@H]4C[C@H](O)[C@@]3(C)[C@@H](O)[C@H](OC(C)=O)C(=C1C)C2(C)C`, the half-maximal inhibitory concentration (IC50) in assay [1] came out at 0.043 µg/mL (≈ 0.0522 µM); in assay [2], 5.7 ng/mL (≈ 0.00692 µM); in assay [3], 5 ng/mL (≈ 0.00607 µM); in assay [5] it was 18 ng/mL (≈ 0.0218 µM). Also, the Ratio in assay [4] came out at 0.82.

Turning to `CC(=O)O[C@@H]1C2=C(C)[C@@H](OC(=O)[C@H](O)[C@@H](NC(=O)OCc3ccccc3)c3ccccc3)C[C@@](O)([C@@H](OC(=O)c3ccccc3)[C@@H]3[C@]4(OC(C)=O)CO[C@@H]4C[C@H](O)[C@@]3(C)[C@H]1O)C2(C)C`, the IC50 in assay [1] was determined as 0.057 µg/mL (≈ 0.0643 µM); in assay [2], 31 ng/mL (≈ 0.035 µM); in assay [3] it was 12 ng/mL (≈ 0.0135 µM); in assay [5], 44 ng/mL (≈ 0.0497 µM).

Turning to `CC(=O)O[C@@H]1C2=C(C)[C@@H](OC(=O)[C@H](O)[C@@H](NC(=O)c3ccco3)c3ccccc3)C[C@@](O)([C@@H](OC(=O)c3ccccc3)[C@@H]3[C@]4(OC(C)=O)CO[C@@H]4C[C@H](O)[C@@]3(C)[C@H]1O)C2(C)C`, the IC50 was 0.034 µg/mL (≈ 0.0402 µM) in assay [1], 7.2 ng/mL (≈ 0.00851 µM) in assay [2], 4.1 ng/mL (≈ 0.00485 µM) in assay [3] and 12 ng/mL (≈ 0.0142 µM) in assay [5]. In assay [4], the Ratio was 0.73.

For the compound `CC(=O)O[C@@H]1C2=C(C)[C@@H](OC(=O)[C@H](O)[C@@H](NC(=O)c3ccc(OCc4ccccc4)cc3)c3ccccc3)C[C@@](O)([C@@H](OC(=O)c3ccccc3)[C@@H]3[C@]4(OC(C)=O)CO[C@@H]4C[C@H](O)[C@@]3(C)[C@H]1O)C2(C)C`, the IC50 in assay [1] was 0.053 µg/mL (≈ 0.0551 µM); in assay [2], 19 ng/mL (≈ 0.0197 µM); in assay [3], 8 ng/mL (≈ 0.00832 µM); in assay [5] it was 25 ng/mL (≈ 0.026 µM). Also, the Ratio in assay [4] was 0.76.

Turning to `CC(=O)O[C@@H]1C2=C(C)[C@@H](OC(=O)[C@H](O)[C@@H](NC(=O)OCC(C)(C)C)c3ccccc3)C[C@@](O)([C@@H](OC(=O)c3ccccc3)[C@@H]3[C@]4(OC(C)=O)CO[C@@H]4C[C@H](O)[C@@]3(C)[C@H]1O)C2(C)C`, the concentration for half-maximal inhibition (IC50) came out at 0.019 µg/mL (≈ 0.0219 µM) in assay [1], 0.65 ng/mL (≈ 0.000751 µM) in assay [2], 1.5 ng/mL (≈ 0.00173 µM) in assay [3] and 7.4 ng/mL (≈ 0.00855 µM) in assay [5]. In addition, the Ratio in assay [4] came out at 0.82.

In the case of `CC(=O)O[C@@H]1C2=C(C)[C@@H](OC(=O)[C@H](O)[C@@H](NC(=O)c3ccc(C)cc3)c3ccccc3)C[C@@](O)([C@@H](OC(=O)c3ccccc3)[C@@H]3[C@]4(OC(C)=O)CO[C@@H]4C[C@H](O)[C@@]3(C)[C@H]1O)C2(C)C`, the IC50 in assay [1] is 0.063 µg/mL (≈ 0.0724 µM); in assay [2] it was 43 ng/mL (≈ 0.0494 µM); in assay [3], 12 ng/mL (≈ 0.0138 µM); in assay [5], 25 ng/mL (≈ 0.0287 µM). Further, in assay [4], the Ratio amounted to 0.75.

Consider `CC(=O)O[C@@H]1C2=C(C)[C@@H](OC(=O)[C@H](O)[C@@H](NC(=O)OC34CC5CC(CC(C5)C3)C4)c3ccccc3)C[C@@](O)([C@@H](OC(=O)c3ccccc3)[C@@H]3[C@]4(OC(C)=O)CO[C@@H]4C[C@H](O)[C@@]3(C)[C@H]1O)C2(C)C`, for which the IC50 in assay [1] worked out at 0.01 µg/mL (≈ 0.0108 µM); in assay [2], 4.3 ng/mL (≈ 0.00462 µM); in assay [3], 2.8 ng/mL (≈ 0.00301 µM); in assay [5] it was 4.8 ng/mL (≈ 0.00516 µM). Moreover, the Ratio in assay [4] was 1.54.

For `CC(=O)O[C@@H]1C2=C(C)[C@@H](OC(=O)[C@H](O)[C@@H](NC(=O)CC(C)(C)C)c3ccccc3)C[C@@](O)([C@@H](OC(=O)c3ccccc3)[C@@H]3[C@]4(OC(C)=O)CO[C@@H]4C[C@H](O)[C@@]3(C)[C@H]1O)C2(C)C`, the IC50 amounted to 0.052 µg/mL (≈ 0.0612 µM) in assay [1], 27 ng/mL (≈ 0.0318 µM) in assay [2], 9 ng/mL (≈ 0.0106 µM) in assay [3] and 5.6 ng/mL (≈ 0.00659 µM) in assay [5]. Further, in assay [4], the Ratio was found to be 1.03.

For `CC(=O)O[C@@H]1C2=C(C)[C@@H](OC(=O)[C@H](O)[C@@H](NC(=O)OCC(C)C)c3ccccc3)C[C@@](O)([C@@H](OC(=O)c3ccccc3)[C@@H]3[C@]4(OC(C)=O)CO[C@@H]4C[C@H](O)[C@@]3(C)[C@H]1O)C2(C)C`, the half-inhibitory concentration (IC50) was 0.028 µg/mL (≈ 0.0329 µM) in assay [1], 4.3 ng/mL (≈ 0.00505 µM) in assay [2], 2.3 ng/mL (≈ 0.0027 µM) in assay [3] and 6.9 ng/mL (≈ 0.0081 µM) in assay [5]. Further, in assay [4], the Ratio came to 1.03.

On to `CC(=O)O[C@@H]1C2=C(C)[C@@H](OC(=O)[C@H](O)[C@@H](NC(=O)c3ccc(O)cc3)c3ccccc3)C[C@@](O)([C@@H](OC(=O)c3ccccc3)[C@@H]3[C@]4(OC(C)=O)CO[C@@H]4C[C@H](O)[C@@]3(C)[C@H]1O)C2(C)C`, for which the IC50 in assay [1] was more than 0.1 µg/mL; in assay [2], more than 100 ng/mL; in assay [3], 67 ng/mL (≈ 0.0768 µM); in assay [5] it was more than 100 ng/mL. Also, the Ratio in assay [4] worked out at 1.07.

Take `CC(=O)O[C@@H]1C2=C(C)[C@@H](OC(=O)[C@H](O)[C@@H](NC(=O)OC(C)C)c3ccccc3)C[C@@](O)([C@@H](OC(=O)c3ccccc3)[C@@H]3[C@]4(OC(C)=O)CO[C@@H]4C[C@H](O)[C@@]3(C)[C@H]1O)C2(C)C`: the IC50 in assay [1] stood at 0.0092 µg/mL (≈ 0.011 µM); in assay [2] it was 1.2 ng/mL (≈ 0.00143 µM); in assay [3], 0.8 ng/mL (≈ 0.000955 µM); in assay [5], 2.2 ng/mL (≈ 0.00263 µM). For the same compound, the Ratio in assay [4] is 0.75.

For `CC(=O)O[C@H]1C(=O)[C@@]2(C)[C@H]([C@H](OC(=O)c3ccccc3)[C@]3(O)C[C@H](OC(=O)[C@H](O)[C@@H](NC(=O)c4ccccc4)c4ccccc4)C(C)=C1C3(C)C)[C@]1(OC(C)=O)CO[C@@H]1C[C@@H]2O` [PACLITAXEL], the IC50 in assay [1] turned out to be 0.046 µg/mL (≈ 0.0539 µM); in assay [3], 2.4 ng/mL (≈ 0.00281 µM); in assay [5], 4.1 ng/mL (≈ 0.0048 µM).

In assay [2], `CC(=O)O[C@@H]1C2=C(C)[C@@H](OC(=O)[C@H](O)[C@@H](NC(=O)OC(C)(C)C)c3ccccc3)C[C@@](O)([C@@H](OC(=O)c3ccccc3)[C@@H]3[C@]4(OC(C)=O)CO[C@@H]4C[C@H](O)[C@@]3(C)[C@H]1O)C2(C)C` returned an IC50 of 0.3 ng/mL (≈ 0.000352 µM). The Ratio in assay [4] came out at 0.87.

On to `CC(=O)O[C@@H]1C2=C(C)[C@@H](OC(=O)[C@H](O)[C@@H](NC(=O)NC(C)(C)C)c3ccccc3)C[C@@](O)([C@@H](OC(=O)c3ccccc3)[C@@H]3[C@]4(OC(C)=O)CO[C@@H]4C[C@H](O)[C@@]3(C)[C@H]1O)C2(C)C`, for which the half-inhibitory concentration (IC50) in assay [1] worked out at 0.017 µg/mL (≈ 0.02 µM); in assay [2], 14 ng/mL (≈ 0.0165 µM); in assay [3], 5.6 ng/mL (≈ 0.00658 µM); in assay [5] it was 4.6 ng/mL (≈ 0.00541 µM). In addition, the Ratio in assay [4] came out at 1.06.

Regarding `CC(=O)N[C@@H](c1ccccc1)[C@@H](O)C(=O)O[C@H]1C[C@@]2(O)[C@@H](OC(=O)c3ccccc3)[C@@H]3[C@]4(OC(C)=O)CO[C@@H]4C[C@H](O)[C@@]3(C)[C@@H](O)[C@H](OC(C)=O)C(=C1C)C2(C)C`, the IC50 in assay [1] was determined as 2.02 µg/mL (≈ 2.54 µM); in assay [2], 2100 ng/mL (≈ 2.65 µM); in assay [3], 270 ng/mL (≈ 0.34 µM); in assay [5], 1100 ng/mL (≈ 1.39 µM). For the same compound, the Ratio in assay [4] was 3.17.
